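Dose response: 5 concentrations. Exposure: 48 h. Format: 96-well plates. Endpoint: linear interpolation; highest concentration if not reached. GI50: concentration for 50% inhibition of growth.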 Calls of active or inactive are those of the source. No stated cut-off is given here; in the data, active = GI50 up to about 1.1 µM and inactive = higher.
Tests used:
Experiment in all cases: inhibition of tumour cell growth, NCI panel, 48 h
[1] = tested on: A549
[2] = tested on: ACHN
[3] = tested on: COLO 205
[4] = tested on: EKVX
[5] = tested on: HCC 2998
[6] = tested on: HOP-92
[7] = tested on: K562
[8] = tested on: KM12
[9] = tested on: NCI-H460
[10] = tested on: SF-539
[11] = tested on: SK-MEL-28
[12] = tested on: SK-MEL-5
[13] = tested on: SN12C
[14] = tested on: SNB-19
[15] = tested on: TK-10
[16] = tested on: UACC-257
[17] = tested on: UACC-62
[18] = tested on: SR

Measured: GI50

COc1cc(CCCC(O)COc2cccc3c2C2(O)CCCCCC32)cc(OC)c1 (centres undefined)
inactive: [1] 16.1 µM | [2] 15.7 µM | [3] 2.53 µM | [4] 16 µM | [5] 4.97 µM | [6] 4.75 µM | [7] 11.6 µM | [8] 17.2 µM | [9] 17.6 µM | [10] 13.4 µM | [11] 17 µM | [12] 7.85 µM | [13] 17.2 µM | [14] 17.8 µM | [15] 14.1 µM | [16] 15.6 µM | [17] 16.4 µM

N#CC1(Cc2ccccc2[N+](=O)[O-])c2ccccc2C2C(N1C(=O)c1ccccc1)C2(Cl)Cl (centres undefined)
inactive: [1] > 100 µM | [2] 13.2 µM | [3] > 100 µM | [4] > 100 µM | [5] 3.76 µM | [6] > 100 µM | [7] > 100 µM | [8] > 100 µM | [9] > 100 µM | [10] > 100 µM | [11] > 100 µM | [12] > 100 µM | [13] > 100 µM | [14] > 100 µM | [15] > 100 µM | [16] > 100 µM | [17] > 100 µM

CN(CN1C(=O)C2Cc3ccccc3CN2C1=O)c1ccccn1 (centres undefined)
inactive: [1] > 100 µM | [2] > 100 µM | [3] > 100 µM | [5] > 100 µM | [7] > 100 µM | [8] > 100 µM | [9] > 100 µM | [10] > 100 µM | [11] > 100 µM | [12] > 100 µM | [13] > 100 µM | [14] > 100 µM | [18] > 100 µM | [15] > 100 µM | [17] > 100 µM

CCOC(=N)CC(=O)NC(C)c1ccccc1 (centres undefined)
inactive: [1] > 100 µM | [2] > 100 µM | [3] > 100 µM | [4] > 100 µM | [5] 87.7 µM | [7] > 100 µM | [8] > 100 µM | [9] > 100 µM | [10] > 100 µM | [11] > 100 µM | [12] > 100 µM | [13] > 100 µM | [14] > 100 µM | [18] > 100 µM | [15] > 100 µM | [16] > 100 µM | [17] > 100 µM

CCOC(=O)/C(C(C)=O)=C1/N[C@H](C(=O)OCC)CS1
inactive: [1] > 100 µM | [2] > 100 µM | [3] > 100 µM | [4] > 100 µM | [5] > 100 µM | [7] > 100 µM | [8] > 100 µM | [9] > 100 µM | [10] 10 µM | [11] > 100 µM | [12] > 100 µM | [13] > 100 µM | [14] > 100 µM | [18] > 100 µM | [16] > 100 µM | [17] > 100 µM

CC1(C)N=C(c2ccccn2)C(c2ccccn2)=NC1(C)C
inactive: [1] > 100 µM | [2] > 100 µM | [3] > 100 µM | [4] > 100 µM | [5] > 100 µM | [6] > 100 µM | [7] > 100 µM | [8] > 100 µM | [9] > 100 µM | [10] > 100 µM | [12] > 100 µM | [13] > 100 µM | [14] > 100 µM | [18] > 100 µM | [16] > 100 µM | [17] > 100 µM

CCOC(=N)CC(=O)Nc1cccc(Cl)c1
inactive: [1] > 100 µM | [2] > 100 µM | [3] > 100 µM | [4] > 100 µM | [5] 67 µM | [7] > 100 µM | [8] > 100 µM | [9] > 100 µM | [10] > 100 µM | [11] > 100 µM | [12] > 100 µM | [13] 51.2 µM | [14] > 100 µM | [18] > 100 µM | [15] > 100 µM | [16] > 100 µM | [17] > 100 µM

COc1ccccc1NC(=O)CC(=O)N1N=C(c2ccccc2)C(/N=N/c2ccc(Cl)cc2)C1=O (centres undefined)
inactive: [1] 25.1 µM | [2] 19.2 µM | [3] 71.4 µM | [4] 37.2 µM | [5] 45.6 µM | [7] 29 µM | [8] 49.5 µM | [9] 34.8 µM | [10] 36.8 µM | [11] 37 µM | [12] 14.6 µM | [13] 68.1 µM | [14] 36 µM | [18] 55.1 µM | [15] 27.7 µM | [16] 65 µM | [17] 25.7 µM

O=C1C[C@H]2CCCN2[C@@H](c2ccccc2)C1
inactive: [1] > 100 µM | [2] > 100 µM | [3] > 100 µM | [4] > 100 µM | [5] > 100 µM | [6] > 100 µM | [7] > 100 µM | [8] > 100 µM | [9] > 100 µM | [10] > 100 µM | [11] > 100 µM | [12] > 100 µM | [13] > 100 µM | [14] > 100 µM | [15] > 100 µM | [16] > 100 µM | [17] > 100 µM
